Laboratory results taken from patent publication US5376688A, “Enhanced solubility pharmaceutical solutions” (R. P. Scherer Corporation, priority 1992, dated 1994).
Each block holds one compound with its values, some of them ahead of it. Where a SMILES comes first, the peptide text is derived from it.

Experiments:
[1] = Saturated aspartame solutions: solubility with potassium hydroxide; type: physicochemical; settings: for ASPARTAME SOLUBILITY (%): saturated solution
Protocol: The following saturated aspartame solutions were prepared, using aspartame as a model of an amphoteric pharmaceutical agent. These solutions contain the indicated amount of aspartame, the indicated solvent and the indicated amount of potassium hydroxide. […] The solutions were suitable for filling into soft gelatin capsules.

[2] = Saturated aspartame solutions: solubility with hydrochloric acid; type: physicochemical; settings: for ASPARTAME SOLUBILITY (%): saturated solution
Text: The following saturated aspartame solutions were made using aspartame for a model for an amphoteric pharmaceutical agent. […] These solutions are suitable for filling into soft gelatin capsules.

[3] = Saturated ibuprofen solutions: solubility (weight percent) with potassium hydroxide

ASPARTAME SOLUBILITY (%) ([1]; solvent LABRASOL, mole equivalent hydroxide 0): 0.30% | ASPARTAME SOLUBILITY (%) ([1]; solvent LABRASOL, mole equivalent hydroxide (KOH) 0.50): 0.60% | ASPARTAME SOLUBILITY (%) ([1]; solvent PLURONIC L62, mole equivalent hydroxide 0): 0.045% | ASPARTAME SOLUBILITY (%) ([1]; solvent PLURONIC L62, mole equivalent hydroxide (KOH) 0.50): 0.045% | ASPARTAME SOLUBILITY (%) ([1]; solvent TRANSCUTOL, mole equivalent hydroxide 0): 0.43% | ASPARTAME SOLUBILITY (%) ([1]; solvent TRANSCUTOL, mole equivalent hydroxide (KOH) 0.50): 0.68% | enhanced solubility (in words) ([2]; hydrochloric acid, each solvent): enhanced solubility was noted | ASPARTAME SOLUBILITY (%) ([2]; solvent LABRASOL, mole equivalent acid 0): 0.30% | ASPARTAME SOLUBILITY (%) ([2]; solvent LABRASOL, mole equivalent acid (HCl) 50 (so in the source)): 0.50% | ASPARTAME SOLUBILITY (%) ([2]; solvent PLURONIC L62, mole equivalent acid 0): 0.045% | ASPARTAME SOLUBILITY (%) ([2]; solvent PLURONIC L62, mole equivalent acid (HCl) 50 (so in the source)): 0.095% | ASPARTAME SOLUBILITY (%) ([2]; solvent TRANSCUTOL, mole equivalent acid 0): 0.43% | ASPARTAME SOLUBILITY (%) ([2]; solvent TRANSCUTOL, mole equivalent acid (HCl) 50 (so in the source)): 0.91%
SMILES: COC(=O)[C@H](Cc1ccccc1)NC(=O)[C@@H](N)CC(=O)O [aspartame] (H-Asp-Phe-OMe)
enhanced solubility (in words) ([1]; potassium hydroxide, except for Pluronic L62): showed enhanced solubility in the presence of the hydroxide species

IBUPROFEN SOLUBILITY (%) ([3]; solvent LABRASOL, mole equivalent hydroxide 0, saturated solution): 25.0% | IBUPROFEN SOLUBILITY (%) ([3]; solvent LABRASOL, mole equivalent hydroxide (KOH) 0.25, saturated solution): 40.0% | IBUPROFEN SOLUBILITY (%) ([3]; solvent LABRASOL, mole equivalent hydroxide (KOH) 0.5, saturated solution): 45.0% | IBUPROFEN SOLUBILITY (%) ([3]; solvent LABRASOL, mole equivalent hydroxide (KOH) 0.75, saturated solution): 42.5% | IBUPROFEN SOLUBILITY (%) ([3]; solvent LABRASOL, mole equivalent hydroxide (KOH) 1.0, saturated solution): 40.0% | IBUPROFEN SOLUBILITY (%) ([3]; solvent PLUROL OLEIQUE, mole equivalent hydroxide 0, saturated solution): 15.0% | IBUPROFEN SOLUBILITY (%) ([3]; solvent PLUROL OLEIQUE, mole equivalent hydroxide (KOH) 0.5, saturated solution): 30.0% | IBUPROFEN SOLUBILITY (%) ([3]; solvent PLURONIC L62, mole equivalent hydroxide 0, saturated solution): 10.0% | IBUPROFEN SOLUBILITY (%) ([3]; solvent PLURONIC L62, mole equivalent hydroxide (KOH) 0.25, saturated solution): 15.0% | IBUPROFEN SOLUBILITY (%) ([3]; solvent PLURONIC L62, mole equivalent hydroxide (KOH) 0.5, saturated solution): 20.0% | IBUPROFEN SOLUBILITY (%) ([3]; solvent PLURONIC L62, mole equivalent hydroxide (KOH) 0.75, saturated solution): 27.5% | IBUPROFEN SOLUBILITY (%) ([3]; solvent PLURONIC L62, mole equivalent hydroxide (KOH) 1.0, saturated solution): 30.0% | IBUPROFEN SOLUBILITY (%) ([3]; solvent TRANSCUTOL, mole equivalent hydroxide 0, saturated solution): 42.5% | IBUPROFEN SOLUBILITY (%) ([3]; solvent TRANSCUTOL, mole equivalent hydroxide (KOH) 0.25, saturated solution): 55.0% | IBUPROFEN SOLUBILITY (%) ([3]; solvent TRANSCUTOL, mole equivalent hydroxide (KOH) 0.5, saturated solution): 60.0% | IBUPROFEN SOLUBILITY (%) ([3]; solvent TRANSCUTOL, mole equivalent hydroxide (KOH) 0.75, saturated solution): 52.5% | IBUPROFEN SOLUBILITY (%) ([3]; solvent TRANSCUTOL, mole equivalent hydroxide (KOH) 1.0, saturated solution): 52.5%
SMILES: CC(C)Cc1ccc(C(C)C(=O)O)cc1 (stereo not shown) [ibuprofen]
